# Data: patent publication US7122173B2, “Agent for the treatment of bladder irritative symptoms accompanied by benign prostatic hyperplasia” (Kyowa Hakko Kogyo Co., Ltd., priority 2001, dated 2006)
# System: slowly-inactivating A-type K^+ channel
# Assay: Voltage clamp, slowly-inactivating A-type K+ currents (HP −90 mV) in unidentified DRG neurons
# Type: cell-based, rat
# Conditions: for K+ current HP: −90 mV (slowly-inactivating A-type), relative value (before drug = 1): unidentified DRG neurons
# Protocol: Experiments were performed on adult female Sprague Dawley rats. First and second series of the experiments were performed, respectively, in unidentified DRG neurons and a specific population of DRG neurons innervating the urinary bladder. The population of DRG neurons that innervate the urinary bladder were labeled by retrograde axonal transport of the fluorescent dye, Fast Blue (4% w/v) (Polyloy, Gross Umstadt, Germany), injected into the wall of the bladder in halothane-anesthetized animals 7 days before the dissociation. The dye was injected with a 28 gauge needle at three to six sites on the dorsal surface of the organ (5–6 μL per site, total volume of 20–30 μL). Each injection site was washed with saline to minimize contamination of adjacent organs with the dye.
# Freshly dissociated neurons from DRG were prepared from halothane-anesthetized animals. L6 and S1 DRG were dissected from animals and then dissociated in a shaking bath for 25 minutes at 35° C. with 5 mL DMEM (Sigma) containing 0.3 mg/mL trypsin (Type 3, Sigma), 1 mg/mL collagenase (Type 1, Sigma), and 0.1 mg/mL deoxyribonuclease (Type 4, Sigma). Trypsin inhibitor (Type 2a, Sigma) was then added thereto to neutralize the activity of trypsin. Individual DRG cell bodies were isolated by trituration and then plated on a poly-L-lysine-coated 35 mm Petri dishes.
# Dye-labeled primary afferent neurons that innervate the urinary bladder were identified using an inverted phase-contrast microscope (Nikon, Tokyo, Japan) with fluorescent attachments (UV-1A filter; excitation wavelength, 365 nm). Gigaohm-seal whole-cell recordings were performed at room temperature (20–22° C.) on each labeled neuron in a culture dish that usually contained three to seven labeled cells among a few hundred unlabeled neurons. The internal solution contained (in mmol/L): KCl 140, CaCl2 1, MgCl2 2, EGTA 11, HEPES 10, Mg-ATP 2, and Tris-GTP 0.4 adjusted to pH 7.4 with KOH. Patch electrodes had resistances of 1–4 M Ω when filled with the internal solution. Neurons were superfused at a flow rate of 1.5 mL/minutes with an external solution containing (in mmol/L): NaCl 150, KCl 5, CaCl2 2.5, MgCl2 1, HEPES 10, and D-glucose 10, adjusted to pH 7.4 with NaOH. All recordings were made with an Axopatch-1D patch-clamp amplifier (Axon Instruments, Foster City, Calif.), and data were acquired and analyzed by PCLAMP software (Axon Instruments).
# In voltage-clamp recordings, outward K^+ currents and inward Na^+ currents were measured. For the isolation of K^+ currents, the external solution was changed to one containing (in mmol/L): choline-Cl 150, KOH 5, CaCl2 0.03, HEPES 10, Mg(OH)2 3, and D-glucose 10, adjusted to pH 7.4 with HCl.
# In first series of experiments using unidentified DRG neurons, outward K^+ currents were evoked by voltage steps to +60 mV, 800 ms long from a holding potentials of −90 mV, this was followed by a 1-second conditioning pre-pulse to −20 mV followed by a second pulse to +60 mV, identical to the first in the sequence. In the second series of experiments using Fast Blue-labeled bladder afferent neurons, slowly-inactivating A-type K^+ currents were isolated by subtraction of outward K^+ currents activated from a holding potential of −40 mV (on the condition of inactivation of the majority of slowly-inactivating A-type K^+ currents) from those activated from a holding potential of −120 mV (on the condition of full activation of slowly-inactivating A-type K^+ currents). A compound was added cumulatively, starting with a lower concentration. Currents were measured at the maximum (peak) and normalized to control (before addition of the compound).
# The currents at a holding potential (HP) of −90 mV are results of the measurement of slowly-inactivating A-type K^+ currents, and the currents at an HP value of −20 mV are results of the measurement of delayed rectifier K^+ currents. […]
smiles,measurement,setting,value
"C[C@](O)(C(=O)Nc1cccc2c1C(=O)c1sccc1CS2(=O)=O)C(F)(F)F [Compound 1, (S)-(+)-N-(5,5-dioxido-10-oxo-4,10-dihydrothieno[3,2-c][1]benzothiepin-9-yl)-3,3,3-trifluoro-2-hydroxy-2-methylpropanamide]","K+ current HP: −90 mV, relative value (before drug = 1)","Compound 1 1.0 × 10^−5 mol/L, in the presence of 5 μmol/L verapamil",0.99 ± 0.02
same,"K+ current HP: −90 mV, relative value (before drug = 1)","Compound 1 1.0 × 10^−5 mol/L, in the presence of 20 mmol/L tetraethylammonium",1.19 ± 0.01
same,"K+ current HP: −90 mV (slowly-inactivating A-type), relative value (before drug = 1)",Compound 1 1.0 × 10^−5 mol/L,0.96 ± 0.05
same,"K+ current HP: −90 mV, relative value (before drug = 1)","Compound 1 1.0 × 10^−6 mol/L, in the presence of 5 μmol/L verapamil",1.11 ± 0.03
same,"K+ current HP: −90 mV, relative value (before drug = 1)","Compound 1 1.0 × 10^−6 mol/L, in the presence of 20 mmol/L tetraethylammonium",1.19 ± 0.05
same,"K+ current HP: −90 mV (slowly-inactivating A-type), relative value (before drug = 1)",Compound 1 1.0 × 10^−6 mol/L,1.06 ± 0.02
same,"K+ current HP: −90 mV, relative value (before drug = 1)","Compound 1 1.0 × 10^−7 mol/L, in the presence of 5 μmol/L verapamil",1.13 ± 0.02
same,"K+ current HP: −90 mV, relative value (before drug = 1)","Compound 1 1.0 × 10^−7 mol/L, in the presence of 20 mmol/L tetraethylammonium",1.10 ± 0.01
same,"K+ current HP: −90 mV (slowly-inactivating A-type), relative value (before drug = 1)",Compound 1 1.0 × 10^−7 mol/L,1.12 ± 0.03
same,"K+ current HP: −90 mV (slowly-inactivating A-type), relative value (before drug = 1)",Compound 1 1.0 × 10^−8 mol/L,0.99 ± 0.08
same,"K+ current HP: −90 mV (slowly-inactivating A-type), relative value (before drug = 1)",Compound 1 2.5 × 10^−8 mol/L,1.07 ± 0.03
same,"K+ current HP: −90 mV, relative value (before drug = 1)","Compound 1 5.0 × 10^−4 mol/L, in the presence of 5 μmol/L verapamil",0.61 ± 0.05
same,"K+ current HP: −90 mV, relative value (before drug = 1)","Compound 1 5.0 × 10^−4 mol/L, in the presence of 20 mmol/L tetraethylammonium",0.29 ± 0.02
same,"K+ current HP: −90 mV, relative value (before drug = 1)","Compound 1 5.0 × 10^−4 mol/L, in the presence of 60 mmol/L tetraethylammonium",0.56 ± 0.05
same,"K+ current HP: −90 mV, relative value (before drug = 1)","Compound 1 5.0 × 10^−5 mol/L, in the presence of 5 μmol/L verapamil",0.94 ± 0.02
same,"K+ current HP: −90 mV, relative value (before drug = 1)","Compound 1 5.0 × 10^−5 mol/L, in the presence of 20 mmol/L tetraethylammonium",0.91 ± 0.04
same,"K+ current HP: −90 mV, relative value (before drug = 1)","Compound 1 5.0 × 10^−5 mol/L, in the presence of 60 mmol/L tetraethylammonium",1.15 ± 0.08
same,"K+ current HP: −90 mV (slowly-inactivating A-type), relative value (before drug = 1)",Compound 1 5.0 × 10^−5 mol/L,0.83 ± 0.09
same,"K+ current HP: −90 mV, relative value (before drug = 1)","Compound 1 5.0 × 10^−6 mol/L, in the presence of 5 μmol/L verapamil",1.02 ± 0.03
same,"K+ current HP: −90 mV, relative value (before drug = 1)","Compound 1 5.0 × 10^−6 mol/L, in the presence of 20 mmol/L tetraethylammonium",1.16 ± 0.03
same,"K+ current HP: −90 mV, relative value (before drug = 1)","Compound 1 5.0 × 10^−6 mol/L, in the presence of 60 mmol/L tetraethylammonium",1.14 ± 0.05
same,"K+ current HP: −90 mV, relative value (before drug = 1)","Compound 1 5.0 × 10^−7 mol/L, in the presence of 5 μmol/L verapamil",1.17 ± 0.03
same,"K+ current HP: −90 mV, relative value (before drug = 1)","Compound 1 5.0 × 10^−7 mol/L, in the presence of 20 mmol/L tetraethylammonium",1.15 ± 0.04
same,"K+ current HP: −90 mV, relative value (before drug = 1)","Compound 1 5.0 × 10^−7 mol/L, in the presence of 60 mmol/L tetraethylammonium",1.11 ± 0.03
same,"K+ current HP: −90 mV (slowly-inactivating A-type), relative value (before drug = 1)",Compound 1 5.0 × 10^−7 mol/L,1.15 ± 0.03
same,"K+ current HP: −90 mV, relative value (before drug = 1)","Compound 1 5.0 × 10^−8 mol/L, in the presence of 5 μmol/L verapamil",1.03 ± 0.02
same,"K+ current HP: −90 mV, relative value (before drug = 1)","Compound 1 5.0 × 10^−8 mol/L, in the presence of 20 mmol/L tetraethylammonium",1.08 ± 0.02
same,"K+ current HP: −90 mV, relative value (before drug = 1)","Compound 1 5.0 × 10^−8 mol/L, in the presence of 60 mmol/L tetraethylammonium",1.08 ± 0.02
same,"K+ current HP: −90 mV (slowly-inactivating A-type), relative value (before drug = 1)",Compound 1 5.0 × 10^−8 mol/L,1.07 ± 0.02
same,"K+ current HP: −90 mV, relative value (before drug = 1)","Compound 1 5.0 × 10^−9 mol/L, in the presence of 20 mmol/L tetraethylammonium",1.02 ± 0.02
same,"K+ current HP: −90 mV (slowly-inactivating A-type), relative value (before drug = 1)",Compound 1 5.0 × 10^−9 mol/L,1.01 ± 0.03
same,Peak compound concentration for increase of slowly-inactivating A-type K^+ currents,"unidentified DRG cells, HP −90 mV",1e-07 to 5e-07 mol/L
